# Reference: patent publication US11549123B2, “Plant EPSP synthases and methods of use” (PIONEER HI-BRED INTERNATIONAL, INC., priority 2015, dated 2023)
# Columns and labels:
# [1] = target: T1, Zea mays EPSPS variant WT-FS-E (102A 302S 391G 438R) (Zea mays, UniProt O24566, E301S/E390G/G101A/V437R); assay: EPSPS substrate saturation kinetics, WT-FS-E; format: biochemical
# T1 sequence (O24566 with tags, fused parts or gaps G101A/E301S/E390G/V437R): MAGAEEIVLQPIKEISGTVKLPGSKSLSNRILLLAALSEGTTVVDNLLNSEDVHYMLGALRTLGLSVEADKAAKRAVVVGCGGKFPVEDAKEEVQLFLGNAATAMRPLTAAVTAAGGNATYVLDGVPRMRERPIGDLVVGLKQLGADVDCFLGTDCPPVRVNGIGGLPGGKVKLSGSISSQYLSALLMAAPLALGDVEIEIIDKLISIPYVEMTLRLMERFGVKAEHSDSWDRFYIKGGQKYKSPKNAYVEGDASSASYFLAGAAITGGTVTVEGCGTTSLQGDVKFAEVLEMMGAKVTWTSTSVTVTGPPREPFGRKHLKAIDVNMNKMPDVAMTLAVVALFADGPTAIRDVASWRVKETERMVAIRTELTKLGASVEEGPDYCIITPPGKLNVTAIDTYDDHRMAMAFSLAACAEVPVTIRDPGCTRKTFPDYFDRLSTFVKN
# Procedure: EPSPS activity was determined by quantifying the phosphate generated from the EPSPS reaction. Release of inorganic phosphate was coupled to reaction with 2-amino-6-mercapto-7-methylpurine ribonucleoside, catalyzed by purine-nucleoside phosphorylase (M R Webb, Proc. Natl. Acad. Sci. 89:4884-4887, 1992). The absorbance change that occurs was monitored at 360 nm, where the extinction is 11,200 M^−1 cm^−1, with a Spectramax plate reader (Molecular Devices). To determine kinetic parameters, the varied substrate was present at seven concentrations (the eighth being the blank, containing no substrate) ranging from 4 to 400 uM and the unvaried substrate present at saturation. Six microliters of 50-fold concentrated stock solutions of the varied substrate were placed in the wells of the 96-well assay plate and reactions were started with the addition of a mixture containing 25 mM Hepes, pH 7, 100 mM KCl, 0.3 mM 2-amino-6-mercapto-7-methylpurine ribonucleosde, 1 uM (1 unit/ml) purine-nucleoside phosphorylase (Sigma N8264) and 200 uM of the non-varied substrate. Reactions were monitored with a Spectramax plate reader. […] KI was then calculated from the following form of the Michaelis-Menten equation for competitive inhibition: KI=KM[I]/(KM app−KM) KM approximates the dissociation constant of the enzyme-substrate complex while kcat is the rate of conversion of substrate to product when the substrate concentration is saturating. kcat/KM is a widely accepted parameter for catalytic efficiency when substrate concentration is low (˜KM). […] The parameter kcat/KM×KI is used to quantify both catalytic efficiency and insensitivity and thus the overall fitness of the enzyme. […]
# The vector DNA of the library was transformed into the BL21(DE3) Tuner AroA knockout strain and the cells were plated onto M9 medium containing 50 mM glyphosate. A small aliquot of the transformed cells was plated on LB, by which it was determined that 1.1×10^8 colony forming units, or 20% of the theoretical library size, were plated and screened. […]
# [2] = target: T2, Oryza sativa EPSPS, native, SEQ ID NO:7 (Oryza sativa, UniProt Q93VK6); assay: EPSPS substrate saturation kinetics, native rice; format: biochemical
# T2 sequence (Q93VK6 64-511): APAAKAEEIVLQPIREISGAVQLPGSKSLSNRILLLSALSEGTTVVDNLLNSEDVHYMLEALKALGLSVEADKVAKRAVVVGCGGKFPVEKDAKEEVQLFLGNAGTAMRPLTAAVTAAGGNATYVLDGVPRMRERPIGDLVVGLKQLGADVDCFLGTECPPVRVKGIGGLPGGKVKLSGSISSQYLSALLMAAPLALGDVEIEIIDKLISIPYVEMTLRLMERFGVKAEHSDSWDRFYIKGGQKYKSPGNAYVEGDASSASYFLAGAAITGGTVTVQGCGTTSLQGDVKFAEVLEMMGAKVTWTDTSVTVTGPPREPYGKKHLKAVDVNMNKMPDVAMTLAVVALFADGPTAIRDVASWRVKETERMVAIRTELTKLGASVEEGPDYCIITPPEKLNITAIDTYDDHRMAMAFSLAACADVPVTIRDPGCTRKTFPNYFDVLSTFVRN
# Procedure: EPSPS activity was determined by quantifying the phosphate generated from the EPSPS reaction. Release of inorganic phosphate was coupled to reaction with 2-amino-6-mercapto-7-methylpurine ribonucleoside, catalyzed by purine-nucleoside phosphorylase (M R Webb, Proc. Natl. Acad. Sci. 89:4884-4887, 1992). The absorbance change that occurs was monitored at 360 nm, where the extinction is 11,200 M^−1 cm^−1, with a Spectramax plate reader (Molecular Devices). To determine kinetic parameters, the varied substrate was present at seven concentrations (the eighth being the blank, containing no substrate) ranging from 4 to 400 uM and the unvaried substrate present at saturation. Six microliters of 50-fold concentrated stock solutions of the varied substrate were placed in the wells of the 96-well assay plate and reactions were started with the addition of a mixture containing 25 mM Hepes, pH 7, 100 mM KCl, 0.3 mM 2-amino-6-mercapto-7-methylpurine ribonucleosde, 1 uM (1 unit/ml) purine-nucleoside phosphorylase (Sigma N8264) and 200 uM of the non-varied substrate. Reactions were monitored with a Spectramax plate reader. The Michaelis-Menten kinetics protocol of the Spectramax software was customized for the substrate concentrations used. The software returns values of KM and Vmax using the Lineweaver-Burke transformation of the Michaelis-Menten equation. To determine kcat, Vmax (uM/min) was divided by the enzyme concentration (uM). […] KI was then calculated from the following form of the Michaelis-Menten equation for competitive inhibition: KI=KM[I]/(KM app−KM) KM approximates the dissociation constant of the enzyme-substrate complex while kcat is the rate of conversion of substrate to product when the substrate concentration is saturating. kcat/KM is a widely accepted parameter for catalytic efficiency when substrate concentration is low (˜KM). […] The parameter kcat/KM×KI is used to quantify both catalytic efficiency and insensitivity and thus the overall fitness of the enzyme.
# Native EPSPS amino acid sequences of rice (Oryza sativa) (SEQ ID NO:7), sorghum (Sorghum halepense) (SEQ ID NO:8), and sunflower (Helianthus annus) (SEQ ID NO:9) including the chloroplast transit peptide sequences were assembled and analyzed for mapping the corresponding amino acid mutations from the maize 868-H6. If complete EPSPS sequences were not available, appropriate adjustments were made based on sequence alignments and conserved residue mapping.
# ChloroP Prediction Server (Emanuelsson, O. et al. 1999. Protein Sci. 8(5):978-84) was used to approximate the amino terminus of the mature EPSPS proteins. […] The synthetic genes were cloned into a plasmid vector and expressed, purified and analyzed as described in Example 1.
# [3] = PEP as substrate, glyphosate as inhibitor
SMILES,improvement in KM for PEP ([1]; compared to G102A alone),kcat ([2]; PEP varied),"Km ([2]; read-out: KM (PEP), PEP varied)",Ki [1],"(kcat/KM)*KI [1, 3]",Ki [2],"(kcat/KM)*KI [2, 3]"
"C=C(OP(=O)(O)O)C(=O)O [PEP, phosphoenolpyruvate]",2 fold,30.97 s⁻¹,12.6 µM,–,–,–,–
"O=C(O)CNCP(=O)(O)O [glyphosate, N-phosphonomethylglycine]",–,–,–,1150 µM,2763,0.1 µM,18
